Organism: Rattus norvegicus
Experiment: Open TG-GATES - Regimen: Daily Repeat
Type: toxicity, organism-based, Sprague-Dawley
Set-up: regimen Daily Repeat, gender Male, age 6 weeks
Conditions: in vivo, po, route gavage; for gamma-GTP / ALP / ALT / AST / BUN / CRE / Ca / DBIL / GLC / IP / K / LDH / Na / PL / RALB / TBIL / TC / TG / TP: tissue Plasma; for APTT / Bas / Eos / Fbg / Hb / Ht / Lym / MCH / MCHC / MCV / Mono / Neu / PT / Plat / RBC / Ret / WBC: tissue Blood; for KIDNEY_L / KIDNEY_R / KIDNEY_TOTAL: tissue Kidney; for LIVER: tissue Liver
[1] = 150 mg/kg, 72 h, dose level High, time 3 day
[2] = 150 mg/kg, […], dose level High, time 7 day
[3] = 150 mg/kg, […], dose level High, time 14 day
[4] = 150 mg/kg, […], dose level High, time 28 day

Compound `Oc1ncnc2[nH]ncc12` [ALLOPURINOL] has a gamma-GTP (50 mg/kg, […], dose level Middle, time 28 day) of 1.6 IU/L, a TERMINAL_BW [1] of 225 g and an APTT [1] of 15.8 s. For the same compound, the Bas [1] was 0%, the Eos [1] was 0.8% and the Fbg [1] was 368.2 mg/dL. For the same compound, the Hb [1] was 14 g/dL, the Ht [1] was 41.8% and the Lym [1] was 70.2%. For the same compound, the MCH [1] was 21.7 pg, the MCHC [1] was 33.4% and the MCV [1] was 65.1 fL. The Mono [1] was 13%, the Neu [1] was 16% and the PT [1] was 12.5 s. It also gave a Plat [1] of 115.9 x10_4/uL, an RBC [1] of 642.4 x10_4/ul and a Ret [1] of 5.2%. For the same compound, the WBC [1] was 122.6 x10_2/uL, the KIDNEY_L [1] was 1.6 g and the KIDNEY_R [1] was 1.7 g. The KIDNEY_TOTAL [1] was 3.2 g, the LIVER [1] was 9.7 g and the ALP [1] was 838.2 IU/L. For the same compound, the ALT [1] was 27.6 IU/L, the AST [1] was 61.2 IU/L and the BUN [1] was 35.2 mg/dL. The CRE [1] was 0.8 mg/dL, the Ca [1] was 11.5 mg/dL and the DBIL [1] was 0 mg/dL. The GLC [1] was 192 mg/dL, the IP [1] was 8 mg/dL and the K [1] was 4.8 meq/L. It also gave an LDH [1] of 165.4 IU/L, a Na [1] of 139 meq/L and a PL [1] of 142 mg/dL. For the same compound, the RALB [1] was 3.8 g/dL, the TBIL [1] was 0.3 mg/dL and the TC [1] was 87 mg/dL. It also gave a TG [1] of 47.8 mg/dL, a TP [1] of 6.3 g/dL and a gamma-GTP [1] of 4.2 IU/L. For the same compound, the TERMINAL_BW [2] was 245.1 g, the TERMINAL_BW [3] was 248.1 g and the TERMINAL_BW [4] was 319.9 g. It also gave an APTT [2] of 16.2 s, a Bas [2] of 0% and an Eos [2] of 1%. For the same compound, the Fbg [2] was 300.7 mg/dL, the Hb [2] was 14.2 g/dL and the Ht [2] was 42.6%. It also gave a Lym [2] of 77.7%, an MCH [2] of 21 pg and an MCHC [2] of 33.2%. It also gave an MCV [2] of 63.2 fL, a Mono [2] of 6.7% and a Neu [2] of 15.3%. For the same compound, the PT [2] was 12.9 s, the Plat [2] was 122.5 x10_4/uL and the RBC [2] was 676.7 x10_4/ul. For the same compound, the Ret [2] was 2.8%, the WBC [2] was 161 x10_2/uL and the APTT [3] was 16.1 s. For the same compound, the Bas [3] was 0%, the Eos [3] was 1% and the Fbg [3] was 414 mg/dL. The Hb [3] was 14.4 g/dL, the Ht [3] was 42.8% and the Lym [3] was 52%. For the same compound, the MCH [3] was 19.8 pg, the MCHC [3] was 33.5% and the MCV [3] was 59 fL. The Mono [3] was 7%, the Neu [3] was 40.4% and the PT [3] was 13.3 s. The RBC [3] was 725 x10_4/ul, the Ret [3] was 2.1% and the WBC [3] was 209.4 x10_2/uL. It also gave an APTT [4] of 15.3 s, a Bas [4] of 0% and an Eos [4] of 0.5%. For the same compound, the Fbg [4] was 319.5 mg/dL, the Hb [4] was 13.7 g/dL and the Ht [4] was 40.8%. It also gave a Lym [4] of 74.8%, an MCH [4] of 19.2 pg and an MCHC [4] of 33.6%. It also gave an MCV [4] of 57.1 fL, a Mono [4] of 3.2% and a Neu [4] of 21%. The PT [4] was 13 s, the Plat [4] was 117.9 x10_4/uL and the RBC [4] was 713.5 x10_4/ul. The Ret [4] was 3.9%, the WBC [4] was 344.2 x10_2/uL and the KIDNEY_L [2] was 1.8 g. For the same compound, the KIDNEY_R [2] was 1.9 g, the KIDNEY_TOTAL [2] was 3.7 g and the KIDNEY_L [3] was 2.8 g. It also gave a KIDNEY_R [3] of 2.9 g, a KIDNEY_TOTAL [3] of 5.7 g and a KIDNEY_L [4] of 3 g. It also gave a KIDNEY_R [4] of 2.7 g, a KIDNEY_TOTAL [4] of 5.6 g and an LIVER [4] of 12.1 g. The ALP [2] was 697 IU/L, the ALT [2] was 24.7 IU/L and the AST [2] was 60.7 IU/L. The BUN [2] was 38.7 mg/dL, the CRE [2] was 0.8 mg/dL and the Ca [2] was 11 mg/dL. It also gave a DBIL [2] of 0.0367 mg/dL, a GLC [2] of 190 mg/dL and an IP [2] of 5.6 mg/dL. The K [2] was 4.6 meq/L, the LDH [2] was 96.3 IU/L and the Na [2] was 141.3 meq/L. It also gave a PL [2] of 139.7 mg/dL, an RALB [2] of 3.8 g/dL and a TBIL [2] of 0.2 mg/dL. For the same compound, the TC [2] was 80.7 mg/dL, the TG [2] was 64.3 mg/dL and the TP [2] was 6.2 g/dL. The gamma-GTP [2] was 3 IU/L, the ALP [3] was 608.6 IU/L and the ALT [3] was 23.4 IU/L. It also gave an AST [3] of 62.8 IU/L, a BUN [3] of 66.2 mg/dL and a CRE [3] of 1 mg/dL. It also gave a DBIL [3] of 0 mg/dL, a GLC [3] of 177 mg/dL and an IP [3] of 5.1 mg/dL. The K [3] was 4.5 meq/L, the LDH [3] was 150.8 IU/L and the Na [3] was 140.2 meq/L. For the same compound, the PL [3] was 154.8 mg/dL, the RALB [3] was 3.3 g/dL and the TBIL [3] was 0.3 mg/dL. The TC [3] was 91.2 mg/dL, the TP [3] was 6.1 g/dL and the gamma-GTP [3] was 6 IU/L. It also gave an ALP [4] of 482 IU/L, an ALT [4] of 29.8 IU/L and an AST [4] of 68.8 IU/L. For the same compound, the BUN [4] was 61.2 mg/dL, the CRE [4] was 1.1 mg/dL and the Ca [4] was 11.3 mg/dL. For the same compound, the DBIL [4] was 0.015 mg/dL, the GLC [4] was 163.5 mg/dL and the IP [4] was 5.2 mg/dL. For the same compound, the K [4] was 4.8 meq/L, the LDH [4] was 150.8 IU/L and the Na [4] was 141.5 meq/L. For the same compound, the PL [4] was 162.5 mg/dL, the RALB [4] was 3.7 g/dL and the TBIL [4] was 0.2 mg/dL. The TC [4] was 98.2 mg/dL, the TG [4] was 79 mg/dL and the TP [4] was 6.3 g/dL. The gamma-GTP [4] was 3.8 IU/L.

Source: ChEMBL document CHEMBL3885861, “Open TG-GATES”
